test system: H358 cells; assay: Cell activity experiment: activity test of H358 cells (MTT, 5 days); assay type: cell-based; details: 5 days incubation, absorbance 492 nm
In short: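 H358 cells seeded 90 μL at 55555 cells/mL, grown 24 h, then exposed to 3-fold serial compound dilutions (final top 10000 nM, 0.5% DMSO) in triplicate for 5 days at 37° C., 5% CO2. Viability by MTT (4 h), formazan dissolved in DMSO, absorbance at 492 nm.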

Row | Compound | IC50
1 | C=CC(=O)N1CCN(c2nc(OC[C@@H]3CCCN3C)nc3c(F)c(-c4cccc5c4CCCC5)c(Cl)cc23)C[C@@H]1CC#N [Example 74] | 25 nM

same assay, conditions: Homo sapiens, NCI-H358, 120 h, 5 days incubation, absorbance 492 nm

Row | Compound | IC50
2 | C=CC(=O)N1CCN(c2nc(OC[C@@H]3CCCN3C)nc3cc(-c4cccc5c4CCCC5)c(Cl)cc23)C[C@@H]1CC#N [Example 75, 2-((S)-1-acryloyl-4-(6-chloro-2-(((S)-1-methylpyrrolidin-2-yl)methoxy)-7-(5,6,7,8-tetrahydronaphthalen-1-yl)quinazolin-4-yl)piperazin-2-yl)acetonitrile] | 86 nM
3 | C=CC(=O)N1CCN(c2nc(OC[C@@H]3CCCN3C)nc3c(F)c(-c4cccc5c4CCCC5)c(Cl)cc23)CC1 [Example 76, 1-(4-(6-chloro-8-fluoro-2-(((S)-1-methylpyrrolidin-2-yl)methoxy)-7-(5,6,7,8-tetrahydronaphthalen-1-yl)quinazolin-4-yl)piperazin-1-yl)prop-2-en-1-one] | 160 nM
4 | C=CC(=O)N1CCN(c2nc(OC[C@@H]3CCCN3C)nc3nc(-c4cccc5c4CCCC5)ccc23)C[C@@H]1CC#N [Example 77, 2-((S)-1-acryloyl-4-(2-(((S)-1-methylpyrrolidin-2-yl)methoxy)-7-(5,6,7,8-tetrahydronaphthalen-1-yl)pyridino[2,3-d]pyrimidin-4-yl)piperazin-2-yl)acetonitrile] | 55 nM
5 | C=C(F)C(=O)N1CCN(c2nc(OC[C@@H]3CCCN3C)nc3cc(-c4cccc5cccc(Cl)c45)ccc23)C[C@@H]1CC#N [Example 78] | 60 nM
6 | C=CC(=O)N1CCN(c2nc(OC[C@@H]3C[C@@H](F)CN3C)nc3cc(-c4cccc5cccc(Cl)c45)ccc23)C[C@@H]1CC#N [Example 79, 2-((S)-1-acryloyl-4-(7-(8-chloronaphthalen-1-yl)-2-((((2S,4R)-4-fluoro-1-methylpyrrolidin-2-yl]methoxy))quinazolin-4-yl)piperazin-2-yl)acetonitrile] | 20 nM
7 | C=C(F)C(=O)N1CCN(c2nc(OC[C@@H]3C[C@@H](F)CN3C)nc3cc(-c4cccc5cccc(Cl)c45)ccc23)C[C@@H]1CC#N [Example 80] | 65 nM
8 | C=C(F)C(=O)N1CCN(c2nc(OC[C@@H]3CCCN3C)nc3cc(-c4cccc5ccc(F)c(Cl)c45)ccc23)C[C@@H]1CC#N [Example 94, 2-((S)-4-(7-(8-chloro-7-fluoronaphthalen-1-yl)-2-(((S)-1-methylpyrrolidin-2-yl)methoxy)quinazolin-4-yl)-1-(2-fluoroacryloyl)piperazin-2-yl)acetonitrile] | 15 nM
9 | C=C(F)C(=O)N1CCN(c2nc(OC[C@@H]3C[C@@H](F)CN3C)nc3cc(-c4cccc5ccc(F)c(Cl)c45)ccc23)C[C@@H]1CC#N [Example 96] | 25 nM
10 | C=CC(=O)N1CCN(c2nc(Oc3cccc4c3CCN(C)C4)nc3cc(-c4cccc5c4CCCC5)ccc23)C[C@@H]1CC#N [Example 109] | 287 nM
11 | C=CC(=O)N1CCN(c2nc(OC[C@@H]3CCCN3C)nc3cc(-c4cccc5c4CCCC5)ccc23)C[C@@H]1CC#N [Example 110, 2-((S)-1-acryloyl-4-(2-(((S)-1-methylpyrrolidin-2-yl)methoxy)-7-(5,6,7,8-tetrahydronaphthalen-1-yl)quinazolin-4-yl)piperazin-2-yl)acetonitrile] | 35 nM
12 | C=C(F)C(=O)N1CCN(c2nc(OC[C@@H]3CCCN3C)nc3cc(-c4cccc5c4CCCC5)ccc23)C[C@@H]1CC#N [Example 111] | 140 nM
13 | C=CC(=O)N1CCN(c2nc(OC[C@@H]3C[C@@H](F)CN3C)nc3cc(-c4cccc5c4CCCC5)ccc23)C[C@@H]1CC#N [Example 112] | 38 nM
14 | C=C(F)C(=O)N1CCN(c2nc(OC[C@@H]3C[C@@H](F)CN3C)nc3cc(-c4cccc5c4CCCC5)ccc23)C[C@@H]1CC#N [Example 113] | 150 nM
15 | C=CC(=O)N1CCN(c2nc(OCC34CCCN3CCC4)nc3cc(-c4cccc5c4CCCC5)ccc23)C[C@@H]1CC#N [Example 114, (S)-2-(1-acryloyl-4-(2-((tetrahydro-1H-pyrrolizin-7a(5H)-yl)methoxy)-7-(5,6,7,8-tetrahydronaphthalen-1-yl)quinazolin-4-yl)piperazin-2-yl)acetonitrile] | 20 nM
16 | C=C(F)C(=O)N1CCN(c2nc(OCC34CCCN3CCC4)nc3cc(-c4cccc5c4CCCC5)ccc23)C[C@@H]1CC#N [Example 115] | 45 nM
17 | C=CC(=O)N1CCN(c2nc(OCC34CCCN3C[C@H](F)C4)nc3cc(-c4cccc5c4CCCC5)ccc23)C[C@@H]1CC#N (stereo partly drawn) [Example 116] | 15 nM
18 | C=C(F)C(=O)N1CCN(c2nc(OCC34CCCN3C[C@H](F)C4)nc3cc(-c4cccc5c4CCCC5)ccc23)C[C@@H]1CC#N (stereo partly drawn) [Example 117] | 30 nM
19 | C=CC(=O)N1CCN(c2nc(OC[C@@H]3CCCN3C)nc3cc(-c4cncc5cccc(Cl)c45)ccc23)C[C@@H]1CC#N [Example 126, 2-((S)-1-acryloyl-4-(7-(5-chloroisoquinolin-4-yl)-2-((((S)-1-methylpyrrolidin-2-yl)methoxy)quinazolin-4-yl])piperazin-2-yl)acetonitrile] | 18 nM
20 | C=C(F)C(=O)N1CCN(c2nc(OC[C@@H]3CCCN3C)nc3cc(-c4cncc5cccc(Cl)c45)ccc23)C[C@@H]1CC#N [Example 127] | 72 nM
21 | C=CC(=O)N1CCN(c2nc(OC[C@@H]3C[C@@H](F)CN3C)nc3cc(-c4cncc5cccc(Cl)c45)ccc23)C[C@@H]1CC#N [Example 128, 2-((S)-1-acryloyl-4-(7-(5-chloroisoquinolin-4-yl)-2-((((2S,4R)-4-fluoro-1-methylpyrrolidin-2-yl)methoxy))quinazolin-4-yl)piperazin-2-yl)acetonitrile] | 20 nM
22 | C=C(F)C(=O)N1CCN(c2nc(OC[C@@H]3C[C@@H](F)CN3C)nc3cc(-c4cncc5cccc(Cl)c45)ccc23)C[C@@H]1CC#N [Example 129] | 50 nM
23 | C=C(F)C(=O)N1CCN(c2nc(OCC34CCCN3CCC4)nc3cc(-c4cncc5cccc(Cl)c45)ccc23)C[C@@H]1CC#N [Example 131, (S)-2-(4-(7-(5-chloroisoquinolin-4-yl)-2-((tetrahydro-1H-pyrrolizin-7a(5H)-yl)methoxy)quinazolin-4-yl)-1-(2-fluoroacryloyl)piperazin-2-yl)acetonitrile] | 16 nM

Further lines, results first:

Row | IC50 | Compound
24 | 12 nM | C=C(F)C(=O)N1CCN(c2nc(OCC34CCCN3CCC4)nc3cc(-c4cccc5cccc(Cl)c45)ccc23)C[C@@H]1CC#N [Example 82, (S)-2-(4-(7-(8-chloronaphthalen-1-yl)-2-((tetrahydro-1H-pyrrolizin-7a(5H)-yl)methoxy)quinazolin-4-yl)-1-(2-fluoroacryloyl)piperazin-2-yl)acetonitrile]
25 | 10 nM | C=C(F)C(=O)N1CCN(c2nc(OC[C@@]34CCCN3CC(F)C4)nc3cc(-c4cccc5cccc(Cl)c45)ccc23)C[C@@H]1CC#N (stereo partly drawn) [Example 84]
26 | 8 nM | C=CC(=O)N1CCN(c2nc(OC[C@@H]3C[C@@H](F)CN3C)nc3cc(-c4cccc5ccc(F)c(Cl)c45)ccc23)C[C@@H]1CC#N [Example 95]
27 | 8 nM | C=C(F)C(=O)N1CCN(c2nc(OCC34CCCN3CCC4)nc3cc(-c4cccc5ccc(F)c(Cl)c45)ccc23)C[C@@H]1CC#N [Example 98, (S)-2-(4-(7-(8-chloro-7-fluoronaphthalen-1-yl)-2-((tetrahydro-1H-pyrrolizin-7a(5H)-yl)methoxy)quinazolin-4-yl)-1-(2-fluoroacryloyl)piperazin-2-yl)acetonitrile]
28 | 8 nM | C=CC(=O)N1CCN(c2nc(OCC34CCCN3CCC4)nc3cc(-c4cncc5cccc(Cl)c45)ccc23)C[C@@H]1CC#N [Example 130, (S)-2-(1-acryloyl-4-(7-(5-chloroisoquinolin-4-yl)-2-((tetrahydro-1H-pyrrolizin-7a(5H)-yl)methoxy)quinazolin-4-yl)piperazin-2-yl)acetonitrile]
29 | 6.5 nM | C=CC(=O)N1CCN(c2nc(OC[C@@H]3CCCN3C)nc3cc(-c4cccc5ccc(F)c(Cl)c45)ccc23)C[C@@H]1CC#N [Example 93, 2-((S)-1-acryloyl-4-(7-(8-chloro-7-fluoronaphthalen-1-yl)-2-(((S)-1-methylpyrrolidin-2-yl)methoxy)quinazolin-4-yl)piperazin-2-yl)acetonitrile]
30 | 6 nM | C=CC(=O)N1CC[C@@H]2[C@H]1CN2c1nc(OC[C@@H]2CCCN2C)nc2cc(-c3cccc4cccc(Cl)c34)ccc12 [Example 85, 1-((1R,5R)-6-(7-(8-chloronaphthalen-1-yl)-2-(((S)-1-methylpyrrolidin-2-yl)methoxy)quinazolin-4-yl)-2,6-diazabicyclo[3.2.0]hept-2-yl)prop-2-en-1-one]
31 | 6 nM | C=C(F)C(=O)N1CCN(c2nc(OCC34CCCN3C[C@H](F)C4)nc3cc(-c4cccc5ccc(F)c(Cl)c45)ccc23)C[C@@H]1CC#N (stereo partly drawn) [Example 100]
32 | 5.5 nM | C=CC(=O)N1CCN(c2nc(OCC34CCCN3CCC4)nc3cc(-c4cccc5cccc(Cl)c45)ccc23)C[C@@H]1CC#N [Example 81]
33 | 5 nM | C=CC(=O)N1CC[C@@H]2[C@H]1CN2c1nc(OC[C@@H]2CCCN2C)nc2cc(-c3cccc4ccc(F)c(Cl)c34)ccc12 [Example 101, 1-((1R,5R)-6-(7-(8-chloro-7-fluoronaphthalen-1-yl)-2-(((S)-1-methylpyrrolidin-2-yl)methoxy)quinazolin-4-yl)-2,6-diazabicyclo[3.2.0]hept-2-yl)prop-2-en-1-one]
34 | 3.2 nM | C=CC(=O)N1CCN(c2nc(OC[C@@]34CCCN3C[C@H](F)C4)nc3cc(-c4cccc5cccc(Cl)c45)ccc23)C[C@@H]1CC#N [Example 83]
35 | 0.49 nM | C=CC(=O)N1CCN(c2nc(OCC34CCCN3CCC4)nc3cc(-c4cccc5ccc(F)c(Cl)c45)ccc23)C[C@@H]1CC#N [Example 97, (S)-2-(1-acryloyl-4-(7-(8-chloro-7-fluoronaphthalen-1-yl)-2-((tetrahydro-1H-pyrrolizin-7a(5H)-yl)methoxy)quinazolin-4-yl)piperazin-2-yl)acetonitrile]
36 | 0.34 nM | C=CC(=O)N1CCN(c2nc(OCC34CCCN3C[C@H](F)C4)nc3cc(-c4cccc5ccc(F)c(Cl)c45)ccc23)C[C@@H]1CC#N (stereo partly drawn) [Example 99]

Source: patent US20240109893A1, “PREPARATION AND APPLICATION METHOD OF HETEROCYCLIC COMPOUNDS AS KRAS INHIBITOR” (SHANGHAI KECHOW PHARMA, INC., priority 2020, published 2024)
